Measurements published in PubChem BioAssay (NCI).
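Each compound was tested at five concentrations against cells in 96-well plates for 48 hours. TGI marks complete inhibition of growth.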

What was measured:
Test in all cases: inhibition of tumour cell growth, NCI panel, 48 h
[1] = tested on: M14 melanoma
[2] = tested on: SF-539 CNS
[3] = tested on: CCRF-CEM leukemia
[4] = tested on: NCI-H522 lung
[5] = tested on: OVCAR-3 ovarian
[6] = tested on: HS 578T breast
[7] = tested on: SK-MEL-5 melanoma
[8] = tested on: HT29 colon
[9] = tested on: MDA-N
[10] = tested on: ACHN renal
[11] = tested on: A498 renal
[12] = tested on: KM12 colon
[13] = tested on: COLO 205 colon
[14] = tested on: MALME-3M melanoma
[15] = tested on: SK-MEL-2 melanoma
[16] = tested on: MDA-MB-231 breast
[17] = tested on: RXF 393 renal
[18] = tested on: SK-MEL-28 melanoma
[19] = tested on: NCI/ADR-RES ovarian
[20] = tested on: SW-620 colon
[21] = tested on: HCT-15 colon
[22] = tested on: MOLT-4 leukemia
[23] = tested on: NCI-H226 lung
[24] = tested on: UACC-62 melanoma
[25] = tested on: IGROV1 ovarian
[26] = tested on: OVCAR-4 ovarian
[27] = tested on: U251 CNS
[28] = tested on: OVCAR-8 ovarian
[29] = tested on: NCI-H23 lung
[30] = tested on: UO-31 renal
[31] = tested on: TK-10 renal
[32] = tested on: HCT-116 colon
[33] = tested on: BT-549 breast
[34] = tested on: EKVX NSCLC
[35] = tested on: OVCAR-5 ovarian
[36] = tested on: SN12C renal
[37] = tested on: T-47D breast
[38] = tested on: HCC-2998 colon
[39] = tested on: MCF7 breast
[40] = tested on: NCI-H460 lung
[41] = tested on: SNB-19 CNS
[42] = tested on: SK-OV-3 ovarian
[43] = tested on: HOP-92 NSCLC
[44] = tested on: MDA-MB-435
[45] = tested on: HOP-62 NSCLC
[46] = tested on: RPMI-8226 leukemia
[47] = tested on: A549 NSCLC
[48] = tested on: SNB-75 CNS
[49] = tested on: 786-0 renal
[50] = tested on: UACC-257 melanoma
[51] = tested on: CAKI-1 renal
[52] = tested on: SF-268 CNS
[53] = tested on: SR leukemia
[54] = tested on: LOX IMVI melanoma
[55] = tested on: K-562 leukemia
[56] = tested on: DU-145 prostate
[57] = tested on: PC-3 prostate
[58] = tested on: SF-295 CNS
[59] = tested on: HL-60(TB) leukemia

Measured: TGI

COc1ccc2c3c([nH]c2c1)[C@H]1C[C@H]2[C@H](C[C@@H](O)[C@H](OC)[C@H]2C(=O)O)CN1CC3
not listed: [59]
> 100 µM: all other assays above

CCSc1nn(-c2c3ccccc3nc3ccccc23)c(=S)s1
not listed: [14]
> 100 µM: all other assays above

CNc1ccc([N+](=O)[O-])cc1C(=O)N1CCC[C@H]1CO
not listed: [2] | [5]
> 100 µM: all other assays above

C1CCN2CC34CC(CC5CCCN(C6CCCC3N6)C54)C2C1 (stereo unspecified)
not listed: [30]
> 100 µM: all other assays above
